These results are taken from paper PMC9330476 (Toxins, 2022).

Test [1] has as its target hα7 nAChR (Homo sapiens, UniProt P36544). The test is classed as cell-based.
For test [2], the target named is hα4β2 nAChR (Homo sapiens, UniProt P17787+P43681). The test is classed as cell-based.

“Also recorded” adds a separate entry of the source. Bridge positions count the residues as written; N and C are the ends. Ends that are not written are not given here. I, II: the chains in the order shown.

Sequence of hα7 nAChR (P36544 23-502 limits assumed): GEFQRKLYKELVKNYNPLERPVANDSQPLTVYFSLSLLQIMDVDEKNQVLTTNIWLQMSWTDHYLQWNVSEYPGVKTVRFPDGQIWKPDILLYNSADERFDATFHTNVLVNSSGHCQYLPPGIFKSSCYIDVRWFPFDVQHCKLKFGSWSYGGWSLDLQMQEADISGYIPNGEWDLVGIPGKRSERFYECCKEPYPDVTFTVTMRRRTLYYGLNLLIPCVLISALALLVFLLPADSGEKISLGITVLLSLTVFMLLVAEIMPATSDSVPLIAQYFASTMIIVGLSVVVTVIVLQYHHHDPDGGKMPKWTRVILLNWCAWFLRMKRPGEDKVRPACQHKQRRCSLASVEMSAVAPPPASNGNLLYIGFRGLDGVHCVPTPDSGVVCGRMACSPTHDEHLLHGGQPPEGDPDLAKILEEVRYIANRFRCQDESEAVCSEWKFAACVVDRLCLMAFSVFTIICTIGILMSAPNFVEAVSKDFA
Sequence of hα4β2 nAChR (P43681 29-627 limits assumed): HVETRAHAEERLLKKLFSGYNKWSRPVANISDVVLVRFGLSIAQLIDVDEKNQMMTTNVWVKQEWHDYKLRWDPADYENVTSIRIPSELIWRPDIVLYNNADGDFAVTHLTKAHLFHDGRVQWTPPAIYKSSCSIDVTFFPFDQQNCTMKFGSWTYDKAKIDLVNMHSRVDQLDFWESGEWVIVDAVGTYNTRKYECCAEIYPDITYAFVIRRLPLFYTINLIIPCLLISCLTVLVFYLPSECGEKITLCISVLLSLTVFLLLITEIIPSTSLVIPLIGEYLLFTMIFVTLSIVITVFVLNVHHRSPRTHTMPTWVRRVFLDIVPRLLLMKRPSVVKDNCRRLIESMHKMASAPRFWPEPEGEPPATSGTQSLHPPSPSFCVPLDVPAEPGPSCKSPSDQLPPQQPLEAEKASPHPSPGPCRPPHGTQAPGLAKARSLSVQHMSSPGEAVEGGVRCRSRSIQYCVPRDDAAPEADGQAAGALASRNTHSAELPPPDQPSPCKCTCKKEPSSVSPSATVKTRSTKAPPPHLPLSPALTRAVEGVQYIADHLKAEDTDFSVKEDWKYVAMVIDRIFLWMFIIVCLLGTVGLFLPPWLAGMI
Sequence of hα4β2 nAChR (P17787 26-502 limits assumed): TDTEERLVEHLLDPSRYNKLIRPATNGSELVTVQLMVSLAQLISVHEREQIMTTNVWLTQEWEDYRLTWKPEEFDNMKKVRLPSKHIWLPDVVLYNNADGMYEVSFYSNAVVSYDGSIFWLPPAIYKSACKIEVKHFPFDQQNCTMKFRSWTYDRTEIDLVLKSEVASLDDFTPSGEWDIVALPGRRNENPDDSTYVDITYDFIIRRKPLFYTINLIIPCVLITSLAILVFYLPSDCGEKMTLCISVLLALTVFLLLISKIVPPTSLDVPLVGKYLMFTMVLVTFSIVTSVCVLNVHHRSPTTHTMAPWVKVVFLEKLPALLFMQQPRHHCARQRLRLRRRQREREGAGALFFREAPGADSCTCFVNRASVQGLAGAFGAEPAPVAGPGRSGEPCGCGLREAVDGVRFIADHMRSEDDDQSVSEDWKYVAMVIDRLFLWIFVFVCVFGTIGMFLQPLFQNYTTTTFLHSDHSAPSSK

As for “I: EARITCQPRGRSKWGRCCLTQMCGNYCCYKHGCRCVYHSWRGHGCSC / II: EARITCQPRGRSKWGRCCLTQMCGNYCCYKHGCRCVYHSWRGHGCSC (disulfide I:6-II:18, I:17-I:27, I:18-II:6, I:23-I:35, I:28-I:45, I:33-I:47, II:17-II:27, II:23-II:35, II:28-II:45, II:33-II:47) [αD-FrXXA]”, the “dissociation / reversibility on hα7” value in test [1] is recorded as “the slower dissociation was for hα7 subtype (almost irreversible)”. In test [2], the “dissociation / reversibility on hα4β2” value is listed as “the fastest was for hα4β2 subtype; also recorded: reversible almost entirely within a few minutes of washing”.
